Reference: ChEMBL document CHEMBL4680355, “Staphylococcus aureus resistance to albocycline can be achieved by mutations that alter cellular NAD/PH pools” (Bioorg Med Chem, 2021)
In brackets after ≈: the same amount, converted by molar mass.

Tests used:
Bacterial 70S ribosome [1] = assay: Binding affinity to Staphylococcus aureus 70S ribosome assessed as reduction in BODIPY-Erythromycin A binding incubated for 1.5 hr by fluorescence polarization assay; assay type: subcellular
Staphylococcus aureus [2] = assay: Antibacterial activity against Staphylococcus aureus NE939 Tn mutant assessed as growth inhibition incubated at 16 to 24 hrs by CLSI method; assay type: functional; settings: time 16-24 hrs
Staphylococcus aureus [3] = assay: Antibacterial activity against Staphylococcus aureus UAMS-1 AlbR D resistant mutant assessed as growth inhibition incubated at 16 to 24 hrs by CLSI method; assay type: functional; settings: time 16-24 hrs
Staphylococcus aureus [4] = assay: Antibacterial activity against Staphylococcus aureus USA300 Tn mutant assessed as growth inhibition incubated at 16 to 24 hrs by CLSI method; assay type: functional; settings: time 16-24 hrs
Staphylococcus aureus [5] = assay: Antibacterial activity against Staphylococcus aureus UAMS-1 AlbR A resistant mutant assessed as growth inhibition incubated at 16 to 24 hrs by CLSI method; assay type: functional; settings: time 16-24 hrs
Staphylococcus aureus [6] = assay: Antibacterial activity against Staphylococcus aureus UAMS-1 assessed as growth inhibition incubated at 16 to 24 hrs by CLSI method; assay type: functional; settings: time 16-24 hrs
Staphylococcus aureus [7] = assay: Antibacterial activity against Staphylococcus aureus UAMS-1 AlbR C resistant mutant assessed as growth inhibition incubated at 16 to 24 hrs by CLSI method; assay type: functional; settings: time 16-24 hrs
Staphylococcus aureus [8] = assay: Antibacterial activity against Staphylococcus aureus UAMS-1 AlbR B resistant mutant assessed as growth inhibition incubated at 16 to 24 hrs by CLSI method; assay type: functional; settings: time 16-24 hrs
Staphylococcus aureus [9] = assay: Antibacterial activity against Staphylococcus aureus NE1416 Tn mutant assessed as growth inhibition incubated at 16 to 24 hrs by CLSI method; assay type: functional; settings: time 16-24 hrs
Staphylococcus aureus [10] = assay: Synergistic antibacterial activity against Staphylococcus aureus UAMS-1 AlbR D resistant mutant assessed as fractional inhibitory concentration index in presence of fosfomycin by broth microdilution assay; assay type: functional
Staphylococcus aureus [11] = assay: Synergistic antibacterial activity against Staphylococcus aureus UAMS-1 AlbR C resistant mutant assessed as fractional inhibitory concentration index in presence of fosfomycin by broth microdilution assay; assay type: functional
Staphylococcus aureus [12] = assay: Inhibition of Staphylococcus aureus MurA expressed in Escherichia coli BL21(DE3) assessed as Vmax for DP-G1cNAc to EU- DP-G1cNAc conversion at 150 uM preincubated for 15 mins by HPLC method (reference value: 0.235 +/- 0.049 uM/min)
Bacterial 70S ribosome [13] = assay: Binding affinity to Staphylococcus aureus 70S ribosome assessed as dissociation constant by measuring reduction in BODIPY-Erythromycin A binding incubated for 1.5 hr by fluorescence polarization assay; assay type: subcellular
Staphylococcus aureus [14] = assay: Inhibition of Staphylococcus aureus MurA expressed in Escherichia coli BL21(DE3) assessed as Kcat for DP-G1cNAc to EU- DP-G1cNAc conversion at 150 uM preincubated for 15 mins by HPLC method (reference value: 0.471 +/- 0.994 /min)
Staphylococcus aureus [15] = assay: Inhibition of Staphylococcus aureus MurA expressed in Escherichia coli BL21(DE3) assessed as Kcat for DP-G1cNAc to EU- DP-G1cNAc conversion at 100 uM preincubated for 15 mins by HPLC method (reference value: 0.471 +/- 0.994 /min)
[16] = Inhibition of Staphylococcus aureus MurA expressed in Escherichia coli BL21(DE3) assessed as using DP-G1cNAc as substrate preincubated for 15 mins by HPLC method
Staphylococcus aureus [17] = assay: Synergistic antibacterial activity against Staphylococcus aureus UAMS-1 AlbR B resistant mutant assessed as fractional inhibitory concentration index in presence of fosfomycin by broth microdilution assay; assay type: functional
Staphylococcus aureus [18] = assay: Synergistic antibacterial activity against Staphylococcus aureus UAMS-1 assessed as fractional inhibitory concentration index in presence of fosfomycin by broth microdilution assay; assay type: functional
Staphylococcus aureus [19] = assay: Inhibition of Staphylococcus aureus MurA expressed in Escherichia coli BL21(DE3) assessed as Vmax for DP-G1cNAc to EU- DP-G1cNAc conversion at 100 uM preincubated for 15 mins by HPLC method (reference value: 0.235 +/- 0.049 uM/min)
Staphylococcus aureus [20] = assay: Inhibition of Staphylococcus aureus MurA expressed in Escherichia coli BL21(DE3) assessed as Kcat for DP-G1cNAc to EU- DP-G1cNAc conversion at 50 uM preincubated for 15 mins by HPLC method (reference value: 0.471 +/- 0.994 /min)
Staphylococcus aureus [21] = assay: Synergistic antibacterial activity against Staphylococcus aureus UAMS-1 AlbR A resistant mutant assessed as fractional inhibitory concentration index in presence of fosfomycin by broth microdilution assay; assay type: functional
Staphylococcus aureus [22] = assay: Inhibition of Staphylococcus aureus MurA expressed in Escherichia coli BL21(DE3) assessed as Vmax for DP-G1cNAc to EU- DP-G1cNAc conversion at 50 uM preincubated for 15 mins by HPLC method (reference value: 0.235 +/- 0.049 uM/min)

SMILES	MIC (Staphylococcus aureus [2]) [µg/mL]	MIC (Staphylococcus aureus [3]) [µg/mL]	MIC (Staphylococcus aureus [4]) [µg/mL]	MIC (Staphylococcus aureus [5]) [µg/mL]	MIC (Staphylococcus aureus [6]) [µg/mL]	MIC (Staphylococcus aureus [7]) [µg/mL]	MIC (Staphylococcus aureus [8]) [µg/mL]	MIC (Staphylococcus aureus [9]) [µg/mL]	also measured
CC[C@H]1OC(=O)[C@@](C)(F)C(=O)[C@H](C)[C@@H](O[C@@H]2O[C@H](C)C[C@H](N(C)C)[C@H]2O)[C@](C)(OC)C[C@@H](C)C(=O)[C@H](C)[C@H]2N(CCCCn3cc(-c4cccc(N)c4)nn3)C(=O)O[C@]12C [SOLITHROMYCIN]	–	–	–	–	–	–	–	–	Ki (Bacterial 70S ribosome [1]): 60.3 nM
C[C@@H]1O[C@@H]1P(=O)(O)O [FOSFOMYCIN]	4 (≈ 29 µM)	16 (≈ 116 µM)	32 (≈ 232 µM)	16 (≈ 116 µM)	16 (≈ 116 µM)	16 (≈ 116 µM)	16 (≈ 116 µM)	16 (≈ 116 µM)	–
CO[C@H]1/C=C/[C@@](C)(O)/C=C/C(=O)O[C@H](C)[C@@H](C)CC/C=C/1C	1 (≈ 3.24 µM)	> 1020	1 (≈ 3.24 µM)	512 (≈ 1660 µM)	1 (≈ 3.24 µM)	> 1020	512 (≈ 1660 µM)	> 256	fractional inhibitory concentration index (FICI) (Staphylococcus aureus [10]): 0.5; fractional inhibitory concentration index (FICI) (Staphylococcus aureus [11]): 0.25; Vmax (Staphylococcus aureus [12]): 0.0476 µM/min; Kd (Bacterial 70S ribosome [13]): 2.4 nM; kcat (Staphylococcus aureus [14]): 0.00159 s⁻¹; kcat (Staphylococcus aureus [15]): 0.0024 s⁻¹; Ki [16]: 23600 nM; fractional inhibitory concentration index (FICI) (Staphylococcus aureus [17]): 0.25; fractional inhibitory concentration index (FICI) (Staphylococcus aureus [18]): 1.004; Vmax (Staphylococcus aureus [19]): 0.0722 µM/min; kcat (Staphylococcus aureus [20]): 0.00523 s⁻¹; fractional inhibitory concentration index (FICI) (Staphylococcus aureus [21]): 0.5; Vmax (Staphylococcus aureus [22]): 0.157 µM/min
